Experimental data from patent publication US20250381165A1, “Method of Use for Benzofuran Compounds” (Tampa Bay Research Institute, Inc., priority 2024, published 2025).
Where two headings read alike, the source gives them in different places. Values belong to the molecule of their own block, whether it stands above or below them.

Assays:
Assay type in all cases: cell-based, murine
[1] = system: DC2.4 cells (B3Z activation); assay: Pathway inhibitor studies in DC2.4/B3Z assay
Method: […]. The cytotoxicity of all inhibitors was assessed using CellTiter96 Aqueous One (Promega (Madison WI, USA); cat. no. G3580).
. The cells were then washed 2× before addition of BzFβ. Cells exposed to the other inhibitors were incubated with an appropriate concentration of each inhibitor, seen in Table 1 in cDMEM at 37° C., 5% CO2. […]. Cells were then incubated for 6 h. Before B3Z addition the inhibitor and BzFβ were removed, and the cells washed with warm DPBS. If testing peptide presentation, the DC2.4 cells were pulsed with 0.5 nM […] for 1 h prior to being cocultured with B3Z.

[2] = molecular target: T1, MHCI/SIINFEKL complex on DC2.4 (Mus musculus, UniProt P01901); assay: Displacement of SIINFEKL from DC2.4 after peptide pulse
T1 construct: DC2.4 are a C57Bl/6 lineage murine cell line and as such they express MHC class I H-2Kb and H-2Db; endogenous in cells; host or cells: DC2.4 (murine dendritic cell line, from Dr. Kenneth Rock)
T1 sequence (P01901 22-369): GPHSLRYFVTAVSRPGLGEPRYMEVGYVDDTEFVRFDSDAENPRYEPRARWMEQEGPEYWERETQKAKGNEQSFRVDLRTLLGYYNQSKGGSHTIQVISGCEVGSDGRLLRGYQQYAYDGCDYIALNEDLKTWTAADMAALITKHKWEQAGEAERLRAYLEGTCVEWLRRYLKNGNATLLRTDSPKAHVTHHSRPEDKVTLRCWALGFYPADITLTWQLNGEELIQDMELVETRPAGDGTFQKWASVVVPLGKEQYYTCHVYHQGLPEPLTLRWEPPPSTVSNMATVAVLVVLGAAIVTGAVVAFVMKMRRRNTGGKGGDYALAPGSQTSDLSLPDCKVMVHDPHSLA
T1 sequence (P01887 21-119 partner): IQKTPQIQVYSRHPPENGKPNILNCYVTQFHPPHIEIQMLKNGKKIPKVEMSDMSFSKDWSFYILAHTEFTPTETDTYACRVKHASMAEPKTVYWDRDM

[3] = molecular target: T2, H-2Kb/SIINFEKL complex on DC2.4 (Mus musculus, UniProt P01901); assay: BFA decay experiment (SIINFEKL off-rate) on DC2.4; conditions: 24 h pre-treatment, 1 h 30 nM SIINFEKL
T2 construct: DC2.4 are a C57Bl/6 lineage murine cell line and as such they express MHC class I H-2Kb and H-2Db; endogenous in cells; host or cells: DC2.4 (murine dendritic cell line, from Dr. Kenneth Rock)

[4] = system: MHC class I H-2Kb on DC2.4; assay: MHC class I recovery after acid stripping of DC2.4; conditions: 25 μg/mL BzFβ or 5 mM GL during recovery, 4-24 h
Method: To determine if BzFβ affects synthesis or cycling of the MHC class I molecules, the class I molecule/peptide complexes were stripped from the surface of DC2.4 cells using a citric acid buffer, then treated with 25 μg/mL BzFβ, 5 mM of the dipeptide GL, or 3 μg/mL BFA (see Example 4) as a negative control.
An acid wash to strip the cell surface of MHC class I was performed as described with modifications. (Montealegre, et al., Dissociation of β2-microglobulin determines the surface quality control of major histocompatibility complex class I molecules. FASEB. 2015 July; 29(7):2780-8). DC2.4 were incubated overnight at 37° C. at 1×10^5. Cells were washed for 2 min in acidic buffer [(pH 2.5) 465 mM Citric acid, 35 mM sodium citrate, in PBS with 1% v/v FBS] or neutral buffer [(pH 7.4) PBS with 1% v/v FBS]. Afterwards the pH was neutralized by the addition of cDMEM. The cells were washed with PBS and treated with BzFβ or GL in cDMEM for various times to allow for MHC class I recovery at 37° C. Cells were washed and stained with an H-2Kb-specific antibody (Invitrogen, cat. no. 12-5958-82) and analyzed by flow cytometry as described previously
MHC I recovery on the cell surface at various time points was detected by flow cytometry using the PE-labeled MHC class I H-2Kb specific antibody (AF6-88.5.5.3). […] At 6 hours >60% of the MHC class I molecules recovered, seen in FIG. 14.

[5] = system: B16F10 cells (B3Z activation); assay: B3Z activation by B16F10 (OVA or SIINFEKL)
Method: B16F10 were plated at a density of 2.5 or 5×10^4 cells/well (100 μL/well in 96 well plates) and cultured overnight in cDMEM. The cells were washed with DPBS and then treated for 1-24 h with the indicated concentrations of BzFβ or co-treated with the indicated concentrations of BzFβ and 1.0 mg/mL OVA, suspended in complete media. Cells treated with BzFβ only were pulsed with 2 nM SIINFEKL pulsed for 1 h. The cells were then co-cultured with equal number of B3Z cells at 37° C. for 19 h.
In this experiment the activity of the dipeptide, GL, was also examined, as it has been previously reported to function as a peptide exchange factor. (Saini, et al., Dipeptides catalyze rapid peptide exchange on MHC class I molecules. Proc Natl Acad Sci USA. 2015 Jan. 6; 112(1):202-7; Saini, et al., Empty peptide-receptive MHC class I molecules for efficient detection of antigen-specific T cells. Sci Immunol. 2019 Jul. 19; 4(37):eaau9039). B16F10 were plated at a density of 2.5 or 5×10^4 cells/well (100 μL/well in 96 well plates) and cultured overnight in cDMEM. The cells were washed with DPBS and then co-treated for 24 h with 10 mM (1.88 mg/mL) of GL and 1.0 mg/mL OVA or were pulsed with 2 nM SIINFEKL for 1 h following treatment with 10 mM GL in complete media. The cells were then co-cultured with an equal number of B3Z cells at 37° C. for 19 h.

[6] = system: DC2.4 cells presenting SIINFEKL to B3Z CD8+ T cell hybridoma; assay: B3Z activation by SIINFEKL-pulsed DC2.4 (CPRG β-gal assay); conditions: doses up to 50 μg/mL (265 μM), 0.5 nM SIINFEKL
Method: DC2.4 cells (2.5×10^4 cells/well) were seeded at 100 μL/well in 96 well tissue culture white sided/white bottom plate and incubated overnight to allow for cell adherence. 37° C. in an atmosphere containing 5% CO2 and 95% humidity. Following pre-treatment of the DC2.4 cells (1-24 h) with escalating doses of the test molecules, the cells were washed, pulsed with 0.5 nM of the MHC class I H-2Kb peptide, SIINFEKL, for 1 h, and then co-cultured with the CD8+ T cell hybridoma, B3Z.
The level of B3Z cell activation and the effects of the various test molecules on B3Z activation were quantified in cell lysates using the β-gal chromogenic substrate, CPRG. The media was removed and 100 μL of 250 μM CPRG reconstituted in the lysis buffer (1×DPBS, 0.2% v/v saponin, 20 mM magnesium chloride) was added directly to each well. Cells were maintained at 37° C. prior to measurement. The absorbance at 560 nm (700 nm for background) was intermittently monitored using a BioTek Synergy HTX multimode microplate reader (Winooski, VT) to detect β-gal activity. CPRG lysis buffer and B3Z cells only served as the negative controls. All treatments were performed in triplicate and all experiments were repeated a minimum of three times.
Activation of B3Z T cell hybridoma cells was assessed following their exposure to various MHC class I H-2K^b positive cell lines presenting the SIINFEKL peptide. B3Z are a CD8+ SIINFEKL peptide specific T-cell hybridoma expressing a beta-galactosidase (β-gal) reporter gene driven by NF-AT elements on the interleukin 2 (IL-2) promoter. […] Activation of B3Z leads to production of β-gal whose presence can be quantified using the optimized detection assay described by Jendresen et al. (Jendresen, et al., An improved CPRG colorimetric ligand-receptor signal transduction assay based on beta-galactosidase activity in mammalian BWZ-reporter cells. J Pharmacol Toxicol Methods. 2018 March-April; 90:67-75).
To stimulate β-gal production in the B3Z, the H-2Kb murine cell lines, DC2.4, B16F10, and E.G7-OVA, or freshly isolated murine splenocytes, were plated at a density of 2.5 or 5×10^4 cells/well (100 μL/well in 96 well plates) and cultured overnight at 37° C. in an atmosphere containing 5% CO2 and 95% humidity. The cells were washed with DPBS and then treated for 1-24 h with the indicated concentrations of BzFβ suspended in complete media. Vehicle controls were always included. […]
To detect activation of the B3Z cells, the media was removed and 100 μL of 250 µM CPRG reconstituted in the lysis buffer (1×DPBS, 0.2% v/v saponin, 20 mM magnesium chloride) was added directly to each well. […] The absorbance at 560 nm (700 nm for background) was intermittently monitored using a BioTek Synergy HTX multimode microplate reader (Winooski, VT) to detect β-gal activity. […]

[7] = DC2.4 pulsed with SIINFEKL, data not shown
[8] = DC2.4 pulsed with […], data not shown

Structure (SMILES): Cn1cnc(N)c2ncnc1-2 [3-methyladenine, 3-Methyladenine]
inhibition of BzFβ enhancement of B3Z activation [1, 7]: failed to inhibit

Structure (SMILES): C[C@H]1CCC/C=C/[C@@H]2C[C@H](O)C[C@H]2[C@H](O)/C=C/C(=O)O1 [BFA, Brefeldin A]
effect of BFA on B3Z activation with OVA as antigen source ([1]; DC2.4, 3 μg/mL BFA 1 h pretreatment, 0.5 mg/mL OVA): significantly suppressed

Structure (SMILES): CO/C1=C\C(C)=C\[C@@H](C)[C@@H](O)[C@@H](C)C/C(C)=C/C=C/[C@H](OC)[C@@H]([C@@H](C)[C@@H](O)[C@H](C)[C@@]2(O)C[C@@H](O)[C@H](C)[C@@H](C(C)C)O2)OC1=O [Bafilomycin A1]
inhibition of BzFβ enhancement of B3Z activation [1, 8]: failed to inhibit

MHCI/SIINFEKL complex staining versus untreated cells ([2]; 5 mM GL after 1 h pulse 30 nM SIINFEKL, p=0.0027): significantly reduced
concentration of dipeptides required relative to BzFβ ([2]; displace or enhance peptide binding): 3 fold
decay rate of SIINFEKL / stability of H-2Kb/SIINFEKL complex [3]: no increase in overall stability
Structure (SMILES): CC(C)CC(NC(=O)CN)C(=O)O (stereo not drawn) [GL, Glycine-leucine dipeptide, reference compound]
MHC class I recovery after acid stripping [4]: no increase in MHC class I production
B3Z activation by B16F10, OVA ([5]; co-treatment with 1 mg/mL OVA, GL at 10 mM): no effect on the uptake or processing of OVA
B3Z activation by B16F10, SIINFEKL ([5]; pre-treatment, 1 h pulse 2 nM SIINFEKL, BzFβ 25, 50 μg, GL 10 mM): significantly enhance B3Z activation

Structure (SMILES): CCN(CC)CCCC(C)Nc1ccnc2cc(Cl)ccc12 (stereo not drawn) [chloroquine, Chloroquine]
inhibition of BzFβ enhancement of B3Z activation [1]: failed to inhibit

Structure (SMILES): C[C@@H]1C[C@@H]([C@H](O)CC2CC(=O)NC(=O)C2)C(=O)[C@@H](C)C1 [cycloheximide, Cycloheximide]
inhibition of BzFβ enhancement of B3Z activation [1, 8]: failed to inhibit

Structure (SMILES): C=C1[C@@H](C)[C@H]2[C@H](Cc3ccccc3)NC(=O)[C@]23[C@H](OC(C)=O)/C=C/[C@@](C)(O)C(=O)[C@@H](C)C/C=C/[C@H]3[C@@H]1O [cytochalasin D, Cytochalasin D]
inhibition of BzFβ enhancement of B3Z activation [1, 8]: failed to inhibit

Structure (SMILES): COc1cccc2c1C(=O)c1c(O)c3c(c(O)c1C2=O)C[C@@](O)(C(=O)CO)C[C@@H]3O[C@H]1C[C@H](N)[C@H](O)[C@H](C)O1 [doxorubicin, Doxorubicin]
inhibition of BzFβ enhancement of B3Z activation [1, 7]: failed to inhibit

Structure (SMILES): O=C(O)C=Cc1ccc2c(c1)CCO2 [molecule #2, 3-(2,3-dihydro-1-benzofuran-5-yl)acrylic acid]
B3Z activation by analog-treated DC2.4 [6]: failed to evoke activation of the B3Z response

Structure (SMILES): O=C(O)/C=C/c1ccc2c(c1)OCO2 [molecule #4, (2E)-3-(1,3-benzodioxol-5yl)acrylic acid]
B3Z activation by analog-treated DC2.4 [6]: failed to evoke activation of the B3Z response
